For data set [1], the system named is MCF7, hormone-independent human breast cancer cells. The data set is described as follows: Proliferation assay, MCF7. Format: cell-based. Particulars: MCF7, 96 h, 4 days incubation, crystal violet. Put shortly: (§1)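 Cells seeded ~5000/well, treated after 24 h with 0.01-30 μM compound (0.5% DMSO) for 4 days. Glutaraldehyde-fixed cells stained with crystal violet, absorbance at 595 nm; growth expressed as percent, normalized to zero-point plate (0%) and untreated cells (100%).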

For the next data set, the target named is T1, CDK1/CycB (Homo sapiens, UniProt P06493).
T1 construct: GST; purchased ProQinase GmbH, Freiburg; host or cells: baculovirus-infected insect cells (Sf9)
T1 sequence (P06493 whole entry): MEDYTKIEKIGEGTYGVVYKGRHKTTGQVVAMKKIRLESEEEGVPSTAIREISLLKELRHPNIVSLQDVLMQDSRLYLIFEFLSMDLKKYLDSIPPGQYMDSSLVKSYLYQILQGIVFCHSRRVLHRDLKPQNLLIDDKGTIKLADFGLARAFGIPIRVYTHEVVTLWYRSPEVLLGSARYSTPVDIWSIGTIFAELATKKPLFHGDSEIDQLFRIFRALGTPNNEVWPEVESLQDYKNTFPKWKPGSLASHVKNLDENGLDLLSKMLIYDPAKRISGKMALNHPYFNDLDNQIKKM
T1 sequence (P14635 whole entry partner): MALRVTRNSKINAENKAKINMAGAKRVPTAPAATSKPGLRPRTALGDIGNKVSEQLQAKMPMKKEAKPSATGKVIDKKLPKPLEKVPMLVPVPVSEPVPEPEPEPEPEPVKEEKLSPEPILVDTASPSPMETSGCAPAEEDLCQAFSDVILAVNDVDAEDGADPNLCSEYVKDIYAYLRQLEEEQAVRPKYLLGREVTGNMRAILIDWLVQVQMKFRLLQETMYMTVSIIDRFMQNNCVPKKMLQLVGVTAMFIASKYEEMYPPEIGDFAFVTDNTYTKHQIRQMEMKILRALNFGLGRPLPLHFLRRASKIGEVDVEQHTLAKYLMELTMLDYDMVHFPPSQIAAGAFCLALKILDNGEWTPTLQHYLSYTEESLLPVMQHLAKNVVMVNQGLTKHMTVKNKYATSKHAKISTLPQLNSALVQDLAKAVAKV
The data set is described as follows: CDK1/CycB Kinase Assay. Type of data set: biochemical. Particulars: histone IIIS substrate, 33P-ATP, 15 minutes at 22° C.

The target of a further data set is T2, CDK2/CycE (Homo sapiens, UniProt P24941).
T2 construct: GST; purchased ProQinase GmbH, Freiburg; host or cells: baculovirus-infected insect cells (Sf9)
The data set is described as follows: CDK2/CycE Kinase Assay. Type of data set: biochemical. Particulars: histone IIIS substrate, 33P-ATP, 15 minutes at 22° C. Put shortly:
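Recombinant GST-tagged CDK2/CycE from Sf9 cells (50 ng/point) was incubated with compound (0.01-100 μM) for 15 min at 22° C, pH 8.0, with 0.5 μM ATP plus ^33P-γ-ATP and histone IIIS as substrate, in 12.5% DMSO. Incorporated ^33P was counted after filter binding and washing.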

In data set [2] the target is T3, VEGF receptor tyrosine kinase-2 (Homo sapiens, UniProt P35968).
T3 construct: GST; made in house; host or cells: baculovirus-infected insect cells (Sf9)
T3 sequence (P35968 20-1356): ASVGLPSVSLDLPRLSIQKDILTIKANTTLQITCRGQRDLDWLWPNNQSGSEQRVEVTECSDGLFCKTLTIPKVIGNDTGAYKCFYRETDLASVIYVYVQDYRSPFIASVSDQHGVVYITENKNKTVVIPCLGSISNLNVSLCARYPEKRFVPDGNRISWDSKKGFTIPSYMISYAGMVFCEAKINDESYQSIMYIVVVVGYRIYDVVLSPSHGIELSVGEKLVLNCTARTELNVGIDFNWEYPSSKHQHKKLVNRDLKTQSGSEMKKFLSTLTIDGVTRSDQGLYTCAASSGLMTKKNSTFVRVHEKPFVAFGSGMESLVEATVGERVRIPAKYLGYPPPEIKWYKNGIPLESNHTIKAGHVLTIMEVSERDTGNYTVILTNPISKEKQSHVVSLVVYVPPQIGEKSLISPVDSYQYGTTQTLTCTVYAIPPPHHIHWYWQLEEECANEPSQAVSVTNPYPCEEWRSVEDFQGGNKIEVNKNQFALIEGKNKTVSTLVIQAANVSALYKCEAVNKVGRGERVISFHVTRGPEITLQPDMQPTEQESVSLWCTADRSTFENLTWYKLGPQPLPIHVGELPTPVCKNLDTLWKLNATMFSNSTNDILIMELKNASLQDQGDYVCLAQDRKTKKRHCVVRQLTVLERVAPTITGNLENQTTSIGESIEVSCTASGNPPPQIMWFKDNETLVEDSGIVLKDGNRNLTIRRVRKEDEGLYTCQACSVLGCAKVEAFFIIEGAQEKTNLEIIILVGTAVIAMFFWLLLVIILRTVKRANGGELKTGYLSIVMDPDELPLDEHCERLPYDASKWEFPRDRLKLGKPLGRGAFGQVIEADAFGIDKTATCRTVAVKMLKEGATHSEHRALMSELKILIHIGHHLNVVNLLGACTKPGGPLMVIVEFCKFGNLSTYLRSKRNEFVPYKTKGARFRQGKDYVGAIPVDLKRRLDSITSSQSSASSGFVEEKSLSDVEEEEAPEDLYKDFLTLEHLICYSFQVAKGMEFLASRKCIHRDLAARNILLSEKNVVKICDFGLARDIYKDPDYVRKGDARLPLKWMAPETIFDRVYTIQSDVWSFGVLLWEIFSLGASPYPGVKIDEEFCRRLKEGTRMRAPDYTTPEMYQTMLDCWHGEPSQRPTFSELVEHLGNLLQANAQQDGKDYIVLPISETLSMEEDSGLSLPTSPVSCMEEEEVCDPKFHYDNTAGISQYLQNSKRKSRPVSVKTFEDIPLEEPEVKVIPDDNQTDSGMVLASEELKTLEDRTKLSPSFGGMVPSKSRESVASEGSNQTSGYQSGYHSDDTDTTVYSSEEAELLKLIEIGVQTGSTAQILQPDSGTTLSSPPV
The data set is described as follows: VEGF Receptor-2 Kinase Assay. Format: biochemical. Particulars: poly-(Glu4Tyr) substrate, 33P-ATP, 10 minutes at 22° C.; read-out: VEGF-R2 IC50.

The next data set deals with MaTu-ADR. The data set is described as follows: Proliferation assay, MaTu-ADR. Format: cell-based. The note with it: Homo sapiens, 96 h, MaTu-ADR cells, 4 days incubation, crystal violet. In a few lines: as §1
Data set [3] has as its system NCI-H460, human non-small-cell lung cancer cells. The data set is described as follows: Proliferation assay, H460. Format: cell-based. The note with it: NCI-H460, 96 h, 4 days incubation, crystal violet. Put shortly: as §1
In data set [4] the test system is DU 145, hormone-independent human prostate cancer cells. The data set is described as follows: Proliferation assay, DU145. Type of data set: cell-based. The note with it: DU-145, 96 h, 4 days incubation, crystal violet. Put shortly: as §1
Data set [5] relates to HCT 116, human colon cancer cells. The data set is described as follows: Proliferation assay, HCT116. Type of data set: cell-based. Particulars: HCT-116, 96 h, 4 days incubation, crystal violet. The source says:
Cultivated human tumor cells (MCF7, hormone-independent human breast cancer cells, related to ATCC HTB22; NCI-H460, human non-small-cell lung cancer cells, ATCC HTB-177, HCT 116, human colon cancer cells, ATCC CCL-247; DU 145, hormone-independent human prostate cancer cells, ATCC HTB-81; MaTu-MDR, hormone-independent, multiple pharmaceutical agent-resistant human breast cancer cells, EPO-GmbH, Berlin) were flattened out at a density of about 5000 cells/measuring point, depending on the growth rate of the respective cells, in a 96-well multititer plate in 200 μl of the corresponding growth medium. After 24 hours, the cells of one plate (zero-point plate) were colored with crystal violet (see below), while the medium of the other plates was replaced by fresh culture medium (200 μl), to which the test substances were added in various concentrations (0 μm, as well as in the range of 0.01-30 μm; the final concentration of the solvent dimethyl sulfoxide was 0.5%). The cells were incubated for 4 days in the presence of test substances. The cell proliferation was determined by coloring the cells with crystal violet: the cells were fixed by adding 20 μl/measuring point of an 11% glutaric aldehyde solution for 15 minutes at room temperature. After three washing cycles of the fixed cells with water, the plates were dried at room temperature. The cells were colored by adding 100 μl/measuring point of a 0.1% crystal violet solution (the pH was set at 3 by adding acetic acid). After three washing cycles of the colored cells with water, the plates were dried at room temperature. The dye was dissolved by adding 100 μl/measuring point of a 10% acetic acid solution. The extinction was determined by photometry at a wavelength of 595 nm. The change of cell growth, in percent, was calculated by normalization of the measured values to the extinction values of the zero-point plate (=0%) and the extinction of the untreated (0 μm) cells (=100%).

A further data set has as its target Human Carboanhydrase-2 (Homo sapiens, UniProt P00918). In words: Carboanhydrase Assay. Type of data set: biochemical. The note with it: 4-nitrophenyl acetate hydrolysis, 400 nm; read-out: Inhibition of Human Carboanhydrase-2 IC50. As to the method:
2 μl of the test compounds, dissolved in DMSO (100× the final concentration), in a concentration range of 0.03-10 μm (final), was pipetted as 4× determinations into the holes of a 96-hole microtiter plate. Holes that contained the solvent without test compounds were used as reference values (1. Holes without carboanhydrase for correction of the non-enzymatic hydrolysis of the substrate, and 2. Holes with carboanhydrase for determining the activity of the non-inhibited enzyme).
188 μl of assay buffer (10 mmol of Tris/HCl, pH 7.4, 80 mmol of NaCl), with or without 3 units/hole on carboanhydrase I or II, was pipetted into the holes of the microtiter plate.

This note sets out measurements from patent US7338958B2, “Sulfoximine-substituted pyrimidines as CDK-and/or VEGF inhibitors, their production and use as pharmaceutical agents” (Schering AG, priority 2003, dated 2008).

As to `CCC(C)Sc1nc(Nc2ccc(S(C)(=N)=O)cc2)ncc1Br` (racemic) [Example 3.1, (RS)-S-[4-({5-bromo-4-[(RS)-(1-methyl-propyl)sulfanyl]pyrimidin-2-yl}amino)phenyl]-S-methyl sulfoximide], the melting point (commonly the temperature of the solid-liquid transition) lay within 175 to 183 °C. Besides, the half-inhibitory concentration (IC50) – broadly, the concentration needed to halve the response being measured – in [1] came to 400 nM. The IC50 against CDK1/CycB was found to be 97 nM. Further, the 50% inhibitory concentration (IC50) against CDK2/CycE was 33 nM. For the same compound, the half-maximal inhibitory concentration (IC50) in data set [2] is 120 nM.

In the case of `C[C@@H](O)[C@@H](C)Oc1nc(Nc2ccc(S(C)(=N)=O)cc2)ncc1Br` (mixture of isomers) [Example 1.4, (RS)-S-[4-({5-bromo-4-[(1R,2R)-2-hydroxy-1-methylpropoxy]pyrimidin-2-yl}amino)phenyl]-S-methyl sulfoximide], the concentration for half-maximal inhibition (IC50) in the data set with MaTu-ADR was 80 nM; in data set [1], 60 nM; at CDK1/CycB it was 13 nM; in data set [2], 340 nM; in data set [3], 60 nM; in [4], 100 nM. In [5], the IC50 is 50 nM.

The compound `CCC(CO)Sc1nc(Nc2ccc(S(C)(=N)=O)cc2)ncc1Br` (racemic) [Example 3.0, (RS)-S-[4-({5-bromo-4-[(RS)-(1-hydroxymethyl-propyl)sulfanyl]pyrimidin-2-yl}amino)phenyl]-S-methyl sulfoximide] displayed a melting point of 175 to 180 °C. The compound also yielded a concentration for half-maximal inhibition (IC50) in [1] of 500 nM. Further, half-maximal inhibition against CDK1/CycB (IC50) was put at 49 nM. This compound also showed an IC50 on CDK2/CycE of 16 nM. In addition, the half-maximal inhibitory concentration (IC50) in data set [2] amounted to 170 nM.

As for `C[C@H](CO)Nc1nc(Nc2ccc(S(C)(=N)=O)cc2)ncc1Br` (mixture of isomers) [Example 1.0, (RS)-S-[4-({5-Bromo-4-[(R)-(2-hydroxy-1-methylethyl)amino]pyridimin-2-yl}amino)phenyl]-S-methyl sulfoximide], the IC50 in the data set on MaTu-ADR was 1600 nM; in data set [1], 300 nM; against CDK1/CycB, 79 nM; against CDK2/CycE, below 10 nM; in data set [2], 40 nM; in data set [3] it was 1200 nM. Moreover, the values for the IC50 (in data set [4]; in [5]; at Human Carboanhydrase-2) were 1500 nM, 400 nM and above 10000 nM, respectively.

With `CC(Sc1nc(Nc2ccc(S(C)(=N)=O)cc2)ncc1Br)C(C)(C)O` (racemic) [Example 3.7, (RS)-S-[4-({5-bromo-4-[(RS)-(2-hydroxy-1,2-dimethylpropyl)sulfanyl]pyrimidin-2-yl}amino)phenyl]-S-methyl sulfoximide], the melting point was in the range of 201 to 202 °C. The compound further displayed an IC50 with MaTu-ADR below 100 nM. Besides, half-maximal inhibition in [1] (IC50) was put at 100 nM. This compound also returned a concentration for half-maximal inhibition (IC50) on CDK1/CycB of 19 nM. Also, the IC50 in [3] was below 100 nM. Moreover, the IC50 in [4] was below 100 nM.

Take `CCC(Sc1nc(Nc2ccc(S(C)(=N)=O)cc2)ncc1Br)C(C)(C)O` (racemic) [Example 3.8, (RS)-S-[4-({5-bromo-4-[(RS)-(1-ethyl-2-hydroxy-2-methylpropyl)sulfanyl]pyrimidin-2-yl}amino)phenyl]-S-methyl sulfoximide]: the melting point is 218 °C (dec.). This compound returned a concentration for half-maximal inhibition (IC50) with MaTu-ADR of 190 nM. The IC50 in [1] was found to be 400 nM. At CDK2/CycE, the IC50 stood at 27 nM. For the same compound, the half-inhibitory concentration (IC50) in [2] was above 1000 nM. Also, in [3], the IC50 stood at 300 nM. For the same compound, the IC50 in data set [4] came to 300 nM.

Regarding `CC(C)Nc1nc(Nc2ccc(S(C)(=N)=O)cc2)ncc1Br` (racemic) [Example 2.0, (RS)-S-(4-{[5-bromo-4-(isopropylamino)pyrimidin-2-yl]amino}phenyl)-S-methyl sulfoximide], the IC50 was found to be 400 nM with MaTu-ADR; 1500 nM in data set [1]; 110 nM on CDK1/CycB; 300 nM in data set [3]; 1700 nM in [4]; 300 nM in [5]. Moreover, at Human Carboanhydrase-2, the IC50 was above 10000 nM.

With `C[C@@H](Nc1nc(Nc2ccc(S(C)(=N)=O)cc2)ncc1Br)C(C)(C)O` (single isomer, unassigned) [Example 1.3], the IC50 is 170 nM in the data set with MaTu-ADR, below 100 nM in [1], 200 nM in data set [4] and 100 nM in data set [5].

For `CC(CO)Sc1nc(Nc2ccc(S(C)(=N)=O)cc2)ncc1Br` (racemic) [Example 3.10, (RS)-S-[4-({5-bromo-4-[(RS)-(2-hydroxy-1-methyl-ethyl)sulfanyl]pyrimidin-2-yl}amino)phenyl]-S-methyl sulfoximide], the melting point fell in the range of 218 to 220 °C. Moreover, the IC50 in data set [1] was 400 nM. On CDK1/CycB, the IC50 was found to be 18 nM. On CDK2/CycE, this compound had an IC50 of 4 nM.
